From patent US20150190421A1, “POLOXAMERS FOR THE IMPROVEMENT OF RESPIRATORY FUNCTION” (PHRIXUS PHARMACEUTICALS, INC., priority 2012, published 2015)
Entries after “also recorded” stand apart in the source; their conditions may differ. Marks after values point to notes of the source that are not given here.

Tests used:
[1] = test system: mdx mouse model of Duchenne Muscular Dystrophy; assay: Whole Body Plethysmography respiration monitoring, mdx mice, 22 weeks daily s.q. dosing; type: in vivo
Experimental: Animals. Male C57BL/10SnJ, hereafter referred to as wild-type (WT), and male mdx C57B1/10ScSn-Dmdmdx mice were used in the study. All protocols were approved by the University of Michigan (UM) UCUCA and all studies were performed in facilities run by the University of Michigan Unit of Laboratory Animal Medicine. […] Mice were purchased from Jackson Laboratories and aged in UM facilities. All ages given are ±2 weeks. Mice were randomized into groups upon receipt from Jackson Laboratories in order to minimize the need for additional cages. […] All compounds were administered subcutaneously.
Respiration was monitored using a Buxco Whole Body Plethysmography (WBP) monitoring chambers for mouse Cat. No. PLY4211 (Buxco Research Systems, Wilmington, N.C.) according to the manufacturer's instructions. In this protocol animals are unrestrained and un-anesthetized. Monitoring was performed in the room in which the animals were housed. The mice were monitored for 2 months prior to initiation of treatment to acclimate the mice to the procedure and establish baseline respiratory parameters done with the last weeks reading prior to initiation of dosing. Mice were randomized into groups based on tidal volume measurements. Upon initiation of dosing, mice were monitored every 2 weeks. Mice were placed in monitoring chambers and allowed to acclimate for 15 minutes prior to recording respiratory parameters. Respiration was then monitored for 10 minutes. Each mouse was monitored in the same chamber for each reading throughout the study to minimize variability.
During acclimation and measurements, the room door was shut and technician movement and room noise was kept to a minimum to allow for complete acclimation. […] Chambers were wiped clean between animals. Data was monitored and collected using FinePoint software (Cat. No. SFT4000) purchased from Buxco Research Systems (Wilmington, N.C.). […] Comparisons between groups of daily, every other day or weekly dosed animals were done by one-way ANOVA using the Neumann-Keuls post-hoc test. Significance was P<0.05. N=10-12 animals per group.
Abbreviations used include the following (units): F, respiration rate (breaths/minute), TV, tidal volume, (ml); TV/BWT, ratio of tidal volume to body weight, (mL/kg); MV, minute volume, (mL/min); Penh, enhanced pause, (no units); Rpef, the ratio of the time from start of expiration to peak expiratory flow to Te (no units); PIF, peak inspiratory flow, (mL sec); PEF, peak expiratory flow, (mL/sec); Te, expiratory time (sec); Ti, inspiratory time, (sec); Tr, relaxation time, (sec).
Respiration was monitored every 2 weeks by WBP.

[2] = test system: diaphragm muscle of mdx mice; assay: Diaphragm histology (centralized nuclei, fiber size and density, fibrosis), mdx mice; type: in vivo, mouse; conditions: prednisone 1 mg/kg QD s.q., 22 weeks
Experimental: Analysis of centralized nuclei. One marker of degeneration is the amount of compensatory regeneration occurring within the muscle. Since newly regenerating fibers have centrally located nuclei, the percentage of fibers with centralized nuclei (CN) from the diaphragm of each animal was determined (FIG. 2A).
Analysis of fiber size and density. The cross-sectional area of regenerating or recently regenerated fibers is expected to be smaller than that of mature muscle fibers. The cross sectional area of approximately 50 muscle fibers was measured from each mouse (600 fibers/group).
Analysis of fibrosis. Fibrosis was measured as the percentage of […] area/total area in Masson's trichrome stained sections.

[3] = Table 3, prednisone 1 mg/kg daily, 22 wks, mean ± S.D.
[4] = prednisone 1 mg/kg QD s.q., 22 weeks, mean ± S.D.

With `C[C@]12C=CC(=O)C=C1CC[C@@H]1[C@@H]2C(=O)C[C@@]2(C)[C@H]1CC[C@]2(O)C(=O)CO` [Prednisone, prednisone] the “TV, 22 wks” value [1, 3] was 0.332 ± 0.021 mL, the “TV/BW, 22 wks” value [1, 3] was 9.9 ± 1.2 mL/kg and the “increase in TV/BW compared with mdx saline (cause)” value ([1]; prednisone 1 mg/kg QD s.q., 22 weeks) was “due to a loss of body weight and not due to improvement in TV”. The “F (respiration rate)” value [1, 4] was 328 ± 30 breaths/min, the “MV (minute volume)” value [1, 4] was 107 ± 11^b ml/min and the “PEF (peak expiratory flow)” value [1, 4] was 4.2 ± 0.4^b mL/sec. The “PIF (peak inspiratory flow)” value [1, 4] was 8.3 ± 0.8^c mL/sec, the “Penh (enhanced pause)” value [1, 4] was 0.393 ± 0.080 and the Rpef [1, 4] was 0.496 ± 0.085. The “TV (tidal volume)” value [1, 4] was 0.332 ± 0.021^c mL, the “Ti (inspiratory time)” value [1, 4] was 0.068 ± 0.006 s and the “Tr (relaxation time)” value [1, 4] was 0.094 ± 0.018 s. The “percentage of fibers with centralized nuclei (CN), diaphragm” value [2] was “nearly the same percentage of fibers with CN as the mdx saline group; also recorded: higher percentage of muscle fibers in the regeneration process than in the P-188 treated groups”.
